Laboratory results published in ChEMBL document CHEMBL1681651, “A broad spectrum anticancer nucleoside with selective toxicity against human colon cells in vitro” (2011).

Experiments:
Assay type in all cases: functional
CAKI-1 = assay: Growth inhibition of human Caki1 cells assessed as cell growth at 1 uM after 48 hrs by SRB assay; settings: CAKI-1, 48 h, read-out: Activity
DU-145 [1] = assay: Growth inhibition of human DU145 cells assessed as cell growth at 1 uM after 48 hrs by SRB assay; settings: DU-145, 48 h, read-out: Activity
NCI-H23 = assay: Growth inhibition of human NCI-H23 cells assessed as cell growth at 10 uM after 48 hrs by SRB assay; settings: NCI-H23, 48 h, read-out: Activity
NCI-H522 = assay: Growth inhibition of human NCI-H522 cells assessed as cell growth at 10 uM after 48 hrs by SRB assay; settings: NCI-H522, 48 h, read-out: Activity
U-251 = assay: Growth inhibition of human U251 cells after 48 hrs by […] growth inhibition assay; settings: U-251, 48 h
OVCAR-3 = assay: Growth inhibition of human OVCAR3 cells after 48 hrs by […] growth inhibition assay; settings: OVCAR-3, 48 h
OVCAR-4 [2] = assay: Growth inhibition of human OVCAR4 cells after 48 hrs by […] growth inhibition assay; settings: OVCAR-4, 48 h
OVCAR-5 [3] = assay: Growth inhibition of human OVCAR5 cells after 48 hrs by […] growth inhibition assay; settings: OVCAR-5, 48 h
BT-549 [4] = assay: Growth inhibition of human BT549 cells after 48 hrs by […] growth inhibition assay; settings: BT-549, 48 h
DU-145 [5] = assay: Growth inhibition of human DU145 cells after 48 hrs by […] growth inhibition assay; settings: DU-145, 48 h
CCRF-CEM [6] = assay: Growth inhibition of human CCRF-CEM cells assessed as cell growth at 0.1 uM after 48 hrs by SRB assay; settings: read-out: Activity
NCI-H322M = assay: Growth inhibition of human NCI-H322M cells assessed as cell growth at 0.1 uM after 48 hrs by SRB assay; settings: read-out: Activity
HT-29 = assay: Growth inhibition of human HT-29 cells assessed as cell growth at 0.1 uM after 48 hrs by SRB assay; settings: HT-29, 48 h, read-out: Activity
NCI/ADR-RES [7] = assay: Growth inhibition of human NCI/ADR-RES cells assessed as cell growth at 0.1 uM after 48 hrs by SRB assay; settings: read-out: Activity
OVCAR-5 [8] = assay: Growth inhibition of human OVCAR5 cells assessed as cell growth at 10 uM after 48 hrs by SRB assay; settings: OVCAR-5, 48 h, read-out: Activity
OVCAR-8 = assay: Growth inhibition of human OVCAR8 cells assessed as cell growth at 10 uM after 48 hrs by SRB assay; settings: OVCAR-8, 48 h, read-out: Activity
786-0 = assay: Growth inhibition of human 786-0 cells assessed as cell growth at 10 uM after 48 hrs by SRB assay; settings: 786-0, 48 h, read-out: Activity
A498 = assay: Growth inhibition of human A498 cells assessed as cell growth at 10 uM after 48 hrs by SRB assay; settings: A498, 48 h, read-out: Activity
PC-3 = assay: Growth inhibition of human PC3 cells assessed as cell growth at 10 uM after 48 hrs by SRB assay; settings: PC-3, 48 h, read-out: Activity
OVCAR-4 [9] = assay: Growth inhibition of human OVCAR4 cells assessed as cell growth at 100 uM after 48 hrs by SRB assay; settings: OVCAR-4, 48 h, read-out: Activity
SK-OV-3 [10] = assay: Growth inhibition of human SKOV3 cells assessed as cell growth at 100 uM after 48 hrs by SRB assay; settings: SK-OV-3, 48 h, read-out: Activity
BT-549 [11] = assay: Growth inhibition of human BT549 cells assessed as cell growth at 100 uM after 48 hrs by SRB assay; settings: BT-549, 48 h, read-out: Activity
CCRF-CEM [12] = assay: Growth inhibition of human CCRF-CEM cells assessed as cell growth at 1 mM after 48 hrs by SRB assay; settings: read-out: Activity
HOP-92 = assay: Growth inhibition of human HOP92 cells assessed as cell growth at 1 mM after 48 hrs by SRB assay; settings: HOP-92, 48 h, read-out: Activity
NCI-H460 = assay: Growth inhibition of human NCI-H460 cells assessed as cell growth at 1 mM after 48 hrs by SRB assay; settings: NCI-H460, 48 h, read-out: Activity
HCT-15 = assay: Growth inhibition of human HCT15 cells assessed as cell growth at 1 mM after 48 hrs by SRB assay; settings: HCT-15, 48 h, read-out: Activity
M14 = assay: Growth inhibition of human M14 cells assessed as cell growth at 1 mM after 48 hrs by SRB assay; settings: M14, 48 h, read-out: Activity
SK-OV-3 [13] = assay: Growth inhibition of human SKOV3 cells assessed as cell growth at 1 mM after 48 hrs by SRB assay; settings: SK-OV-3, 48 h, read-out: Activity
BT-549 [14] = assay: Growth inhibition of human BT549 cells assessed as cell growth at 1 mM after 48 hrs by SRB assay; settings: BT-549, 48 h, read-out: Activity
NCI/ADR-RES [15] = assay: Growth inhibition of human NCI/ADR-RES cells after 48 hrs by SRB assay
COLO 205 = assay: Growth inhibition of human COLO205 cells assessed as cell growth at 1 uM after 48 hrs by SRB assay; settings: COLO 205, 48 h, read-out: Activity
SK-MEL-5 = assay: Growth inhibition of human SK-MEL-5 cells assessed as cell growth at 1 uM after 48 hrs by SRB assay; settings: SK-MEL-5, 48 h, read-out: Activity
[16] = read-out: LC50 (the source's name)
[17] = read-out: pLC50 (the source's name) (converted)

CNC(=O)NC[C@H]1O[C@@H](n2cnc3c(NC(=O)Nc4ccccc4)ncnc32)[C@H](O[Si](C)(C)C(C)(C)C)[C@@H]1O[Si](C)(C)C(C)(C)C
growth at 1 µM (CAKI-1): 99% | growth at 1 µM (DU-145 [1]): 107% | growth at 10 µM (NCI-H23): 105% | growth at 10 µM (NCI-H522): 90% | GI50 (U-251; read-out: GI50): 2.96 µM | CC50 (U-251; [16]): > 100 µM | TGI (U-251; read-out: TGI): 10.8 µM | GI50 (U-251; read-out: pGI50 (converted)): 2.95 µM | CC50 (U-251; [17]): > 100 µM | TGI (U-251; read-out: pTGI (converted)): 10.7 µM | GI50 (OVCAR-3; read-out: GI50): 2.6 µM | CC50 (OVCAR-3; [16]): 98.2 µM | TGI (OVCAR-3; read-out: TGI): 5.54 µM | GI50 (OVCAR-3; read-out: pGI50 (converted)): 2.63 µM | CC50 (OVCAR-3; [17]): 97.7 µM | TGI (OVCAR-3; read-out: pTGI (converted)): 5.5 µM | GI50 (OVCAR-4 [2]; read-out: GI50): 3.44 µM | CC50 (OVCAR-4 [2]; [16]): > 100 µM | TGI (OVCAR-4 [2]; read-out: TGI): 43.9 µM | GI50 (OVCAR-4 [2]; read-out: pGI50 (converted)): 3.47 µM | CC50 (OVCAR-4 [2]; [17]): > 100 µM | TGI (OVCAR-4 [2]; read-out: pTGI): 43.7 µM | GI50 (OVCAR-5 [3]; read-out: GI50): 5.24 µM | CC50 (OVCAR-5 [3]; [16]): > 100 µM | TGI (OVCAR-5 [3]; read-out: TGI): 25.2 µM | GI50 (OVCAR-5 [3]; read-out: pGI50 (converted)): 5.25 µM | CC50 (OVCAR-5 [3]; [17]): > 100 µM | TGI (OVCAR-5 [3]; read-out: pTGI (converted)): 25.1 µM | GI50 (BT-549 [4]; read-out: GI50): 2.94 µM | CC50 (BT-549 [4]; [16]): > 100 µM | TGI (BT-549 [4]; read-out: TGI): 8.18 µM | GI50 (BT-549 [4]; read-out: pGI50 (converted)): 2.95 µM | CC50 (BT-549 [4]; [17]): > 100 µM | TGI (BT-549 [4]; read-out: pTGI (converted)): 8.13 µM | GI50 (DU-145 [5]; read-out: GI50): 2.58 µM | CC50 (DU-145 [5]; [16]): 18.7 µM | TGI (DU-145 [5]; read-out: TGI): 5.71 µM | GI50 (DU-145 [5]; read-out: pGI50 (converted)): 2.57 µM | CC50 (DU-145 [5]; [17]): 18.6 µM | TGI (DU-145 [5]; read-out: pTGI (converted)): 5.75 µM | growth at 0.1 µM (CCRF-CEM [6]): 104% | growth at 0.1 µM (NCI-H322M): 102% | growth at 0.1 µM (HT-29): 102% | growth at 0.1 µM (NCI/ADR-RES [7]): 106% | growth at 10 µM (OVCAR-5 [8]): 103% | growth at 10 µM (OVCAR-8): 106% | growth at 10 µM (786-0): 110% | growth at 10 µM (A498): 90% | growth at 10 µM (PC-3): 83% | growth at 100 µM (OVCAR-4 [9]): 7% | growth at 100 µM (SK-OV-3 [10]): 39% | growth at 100 µM (BT-549 [11]): -10% | growth at 1000 µM (CCRF-CEM [12]): 4% | growth at 1000 µM (HOP-92): -50% | growth at 1000 µM (NCI-H460): -75% | growth at 1000 µM (HCT-15): 6% | growth at 1000 µM (M14): -52% | growth at 1000 µM (SK-OV-3 [13]): 8% | growth at 1000 µM (BT-549 [14]): -36% | GI50 (NCI/ADR-RES [15]; read-out: GI50): 3.72 µM | CC50 (NCI/ADR-RES [15]; [16]): > 100 µM | TGI (NCI/ADR-RES [15]; read-out: TGI): 20.7 µM | GI50 (NCI/ADR-RES [15]; read-out: pGI50 (converted)): 3.72 µM | CC50 (NCI/ADR-RES [15]; [17]): > 100 µM | TGI (NCI/ADR-RES [15]; read-out: pTGI (converted)): 20.9 µM | growth at 1 µM (COLO 205): 111% | growth at 1 µM (SK-MEL-5): 98%
